Results reported in patent US4487937A, “2-(2-Substitutedamino-4-thiazolyl)-2-(1-methoxy-isopropoxyimino)-acetic acids” (Roussel Uclaf, priority 1977, dated 1984).
In brackets after ≈: the same amount, converted by molar mass. Where two headings read alike, the source gives them in different places.

What was measured:
Experiment in all cases: In vitro MIC, dilution of a liquid medium
Assay type in all cases: cell-based
[1] = test system: Staphylococcus aureus ATCC 6 538 Penicillin-Sensitive; conditions: 37° C., read-out: minimum inhibiting concentration (MIC)
Description: (§1) The method used was a dilution of a liquid medium where a series of tubes received the same quantity of a sterile nutritive media and increasing doses of the test compounds were placed therein. Then each tube was seeded with a bacterial strain and was incubated for 24 or 48 hours at 37° C. in an oven. The increasing inhibition was determined by transillumination to determine the minimum inhibiting concentration (MIC in μg/ml) and the results are reported in the following Tables.

[2] = test system: Streptococcus pyogenes A 561; conditions: read-out: minimum inhibiting concentration (MIC)
Description: as §1

[3] = test system: Staphylococcus aureus exp. n° 54 146; conditions: 37° C., read-out: minimum inhibiting concentration (MIC)
Description: as §1

[4] = test system: Streptococcus faecalis 99 F 74; conditions: Enterococcus faecalis, 99F74, 37° C., read-out: minimum inhibiting concentration (MIC)
Description: as §1

[5] = test system: Escherichia Coli Sensitive Tetracycline ATCC 9 637; conditions: read-out: minimum inhibiting concentration (MIC)
Description: as §1

[6] = test system: Streptococcus faecalis 5 432; conditions: Enterococcus faecalis, 5432, 37° C., read-out: minimum inhibiting concentration (MIC)
Description: as §1

[7] = test system: Providencia Du 48; conditions: 37° C., read-out: minimum inhibiting concentration (MIC)
Description: as §1

[8] = test system: Klebsiella pneumoniae 2 536 Resistant Gentamicine; conditions: read-out: minimum inhibiting concentration (MIC)
Description: as §1

[9] = test system: Escherichia Coli Resistant Gentamicine, Tobramycine R 55 123 D; conditions: read-out: minimum inhibiting concentration (MIC)
Description: as §1

[10] = test system: Klebsiella pneumoniae Exp. 52 145; conditions: read-out: minimum inhibiting concentration (MIC)
Description: as §1

[11] = test system: Enterobacter cloacae 681; conditions: 37° C., read-out: minimum inhibiting concentration (MIC)
Description: as §1

[12] = test system: Escherichia Coli Resistant Tetracycline ATCC 11 303; conditions: read-out: minimum inhibiting concentration (MIC)
Description: as §1

[13] = test system: Proteus mirabilis (indol -) A 235; conditions: read-out: minimum inhibiting concentration (MIC)
Description: as §1

[14] = test system: Salmonella typhimurium 420; conditions: Salmonella enterica, read-out: minimum inhibiting concentration (MIC)
Description: as §1

[15] = test system: Serratia Resistant Gentamicine 2 532; conditions: 37° C., read-out: minimum inhibiting concentration (MIC)
Description: as §1

[16] = test system: Proteus vulgaris (indol +) A 232; conditions: read-out: minimum inhibiting concentration (MIC)
Description: as §1

[17] = test system: Bacillus subtilis ATCC 6 633; conditions: read-out: minimum inhibiting concentration (MIC)
Description: as §1

[18] = test system: Escherichia Coli Exp. TO26 B6; conditions: 37° C., read-out: minimum inhibiting concentration (MIC)
Description: as §1

[19] = test system: Staphylococcus aureus UC 1 128 Penicillin-resistant; conditions: 37° C., read-out: minimum inhibiting concentration (MIC)
Description: as §1

| SMILES | MIC ([1]; ATCC6, 24 H) [µg/mL] | MIC ([1]; ATCC6, 48 H) [µg/mL] | MIC ([3]; 24 H) [µg/mL] | MIC ([3]; 48 H) [µg/mL] | MIC ([4]; 24 H) [µg/mL] | MIC ([4]; 48 H) [µg/mL] | MIC ([6]; 24 H) [µg/mL] | MIC ([6]; 48 H) [µg/mL] | MIC ([7]; DU48, 24 H) [µg/mL] | MIC ([7]; DU48, 48 H) [µg/mL] | MIC ([9]; 24 h) [µg/mL] | MIC ([9]; 48 h) [µg/mL] | MIC ([11]; 24 H) [µg/mL] | MIC ([11]; 48 H) [µg/mL] | MIC ([12]; ATCC11, 24 H, 37° C.) [µg/mL] | MIC ([15]; 24 H) [µg/mL] | MIC ([15]; 48 H) [µg/mL] | MIC ([18]; 24 H) [µg/mL] | MIC ([18]; 48 H) [µg/mL] | MIC ([19]; UC1, 24 H) [µg/mL] | further results |
| --- | --- | --- | --- | --- | --- | --- | --- | --- | --- | --- | --- | --- | --- | --- | --- | --- | --- | --- | --- | --- | --- |
| CCOC(=O)CO/N=C(\C(=O)NC1C(=O)N2C(C(=O)O)=C(COC(C)=O)CS[C@H]12)c1csc(N)n1 (stereo partly drawn) [Example 2, 7-[2-(2-amino-4-thiazolyl)-2-carbethoxymethyloxyimino-acetamido]-3-acetoxymethyl-ceph-3-eme-4-carboxylic acid] | 3 (≈ 5.69 µM) | 5 (≈ 9.48 µM) | 3 (≈ 5.69 µM) | 5 (≈ 9.48 µM) | > 40 | > 40 | 5 (≈ 9.48 µM) | > 40 | 5 (≈ 9.48 µM) | 5 (≈ 9.48 µM) | 1 (≈ 1.9 µM) | 1 (≈ 1.9 µM) | 10 (≈ 19 µM) | 10 (≈ 19 µM) | 0.5 (≈ 0.948 µM) | 5 (≈ 9.48 µM) | 5 (≈ 9.48 µM) | 1 (≈ 1.9 µM) | 1 (≈ 1.9 µM) | 3 (≈ 5.69 µM) | MIC ([2]; A561, 24 H, 37° C.): 0.05 µg/mL (≈ 0.0948 µM); MIC ([2]; A561, 48 h): 0.1 µg/mL (≈ 0.19 µM); MIC ([5]; ATCC9, 24 H, 37° C.): 2 µg/mL (≈ 3.79 µM); MIC ([5]; ATCC9, 48 H, 37° C.): 2 µg/mL (≈ 3.79 µM); MIC ([8]; 24 H, 37° C.): 2 µg/mL (≈ 3.79 µM); MIC ([8]; 48 H, 37° C.): 2 µg/mL (≈ 3.79 µM); MIC ([10]; EXP.52145, 48 H, 37° C.): 0.2 µg/mL (≈ 0.379 µM); MIC ([10]; EXP.52145, 24 h): 0.1 µg/mL (≈ 0.19 µM); MIC ([12]; ATCC11, 48 h): 1 µg/mL (≈ 1.9 µM); MIC ([13]; 24 H, 37° C.): 0.2 µg/mL (≈ 0.379 µM); MIC ([13]; 48 H, 37° C.): 0.2 µg/mL (≈ 0.379 µM); MIC ([14]; 48 H, 37° C.): 2 µg/mL (≈ 3.79 µM); MIC ([14]; 24 h): 1 µg/mL (≈ 1.9 µM); MIC ([16]; 24 h): 1 µg/mL (≈ 1.9 µM); MIC ([16]; 48 h): 1 µg/mL (≈ 1.9 µM); MIC ([17]; ATCC6, 24 H, 37° C.): 0.5 µg/mL (≈ 0.948 µM); MIC ([17]; ATCC6, 48 H, 37° C.): 5 µg/mL (≈ 9.48 µM); MIC ([19]; UC1, 48 H): 3 µg/mL (≈ 5.69 µM) |
| CC(=O)OCC1=C(C(=O)O)N2C(=O)C(NC(=O)/C(=N\OCC(=O)O)c3csc(N)n3)[C@H]2SC1 (stereo partly drawn) [Example 5, disodium 7-[2-(2-amino-4-thiazolyl)-2-hydroxycarbonylmethoxyimino-acetamido]-3-acetoxymethyl-ceph-3-eme-4-carboxylate] | 10 | 10 | 20 | 20 | > 40 | > 40 | 20 | > 40 | 1 | 2 | 0.1 | 0.1 | 5 | 20 | 0.05 | 1 | 2 | 0.1 | 0.1 | 20 | MIC ([2]; A561, 24 H, 37° C.): 0.5 µg/mL; MIC ([2]; A561, 48 H, 37° C.): 0.5 µg/mL; MIC ([5]; ATCC9, 24 h): 0.2 µg/mL; MIC ([5]; ATCC9, 48 h): 0.2 µg/mL; MIC ([8]; 24 h): 0.1 µg/mL; MIC ([8]; 48 h): 0.1 µg/mL; MIC ([10]; EXP.52145, 24 h): 0.1 µg/mL; MIC ([10]; EXP.52145, 48 h): 0.1 µg/mL; MIC ([12]; ATCC11, 48 H, 37° C.): 0.05 µg/mL; MIC ([13]; 24 H, 37° C.): ≤ 0.02 µg/mL; MIC ([13]; 48 H, 37° C.): ≤ 0.02 µg/mL; MIC ([14]; 48 H, 37° C.): 0.5 µg/mL; MIC ([14]; 24 h): 0.2 µg/mL; MIC ([16]; 24 h): 0.1 µg/mL; MIC ([16]; 48 h): 0.1 µg/mL; MIC ([19]; UC1, 48 H): 20 µg/mL |
| CC(=O)OCC1=C(C(=O)O)N2C(=O)C(NC(=O)/C(=N\OCC#N)c3csc(N)n3)C2SC1 (stereo not drawn) [Example 8, sodium 7-[2-(2-amino-4-thiazolyl)-2-cyano-methoxyimino-acetamido]-3-acetoxymethyl-ceph-3-eme-4-carboxylate] | 2 | 2 | 2 | 3 | 10 | > 40 | 3 | 20 | 5 | 5 | 0.2 | 0.2 | 3 | 5 | 0.05 | 2 | 2 | 0.2 | 0.2 | 2 | MIC ([2]; A561, 24 H, 37° C.): 0.05 µg/mL; MIC ([2]; A561, 48 H, 37° C.): 0.05 µg/mL; MIC ([5]; ATCC9, 24 h): 0.5 µg/mL; MIC ([5]; ATCC9, 48 h): 0.5 µg/mL; MIC ([8]; 24 H, 37° C.): 1 µg/mL; MIC ([8]; 48 H, 37° C.): 1 µg/mL; MIC ([10]; EXP.52145, 24 H, 37° C.): 0.05 µg/mL; MIC ([10]; EXP.52145, 48 H, 37° C.): 0.05 µg/mL; MIC ([12]; ATCC11, 48 H, 37° C.): 0.05 µg/mL; MIC ([13]; 24 H, 37° C.): 0.05 µg/mL; MIC ([13]; 48 H, 37° C.): 0.05 µg/mL; MIC ([14]; 24 h): 0.5 µg/mL; MIC ([14]; 48 h): 0.5 µg/mL; MIC ([17]; ATCC6, 48 H, 37° C.): 1 µg/mL; MIC ([17]; ATCC6, 24 h): 0.5 µg/mL; MIC ([19]; UC1, 48 H): 3 µg/mL |
| CC(=O)OCC1=C(C(=O)O)N2C(=O)C(NC(=O)/C(=N\OCC(N)=O)c3csc(N)n3)[C@H]2SC1 (stereo partly drawn) [Example 11, sodium 7-[2-(2-amino-4-thiazolyl)-2-(aminocarbonylmethoxyimino)-acetamido]-3-acetoxymethyl-ceph-3-eme-4-carboxylate] | 2 | 3 | 3 | 5 | 20 | > 40 | 5 | 20 | 5 | 5 | 0.1 | 0.1 | 2 | 10 | 0.05 | 2 | 2 | 0.1 | 0.1 | 5 | MIC ([2]; A561, 24 h): 0.1 µg/mL; MIC ([2]; A561, 48 h): 0.1 µg/mL; MIC ([5]; ATCC9, 24 h): 0.2 µg/mL; MIC ([5]; ATCC9, 48 h): 0.5 µg/mL; MIC ([8]; 24 h): 0.5 µg/mL; MIC ([8]; 48 h): 0.5 µg/mL; MIC ([10]; EXP.52145, 24 H, 37° C.): 0.05 µg/mL; MIC ([10]; EXP.52145, 48 H, 37° C.): 0.05 µg/mL; MIC ([12]; ATCC11, 48 H, 37° C.): 0.05 µg/mL; MIC ([13]; 24 h): 0.1 µg/mL; MIC ([13]; 48 h): 0.1 µg/mL; MIC ([14]; 24 h): 0.2 µg/mL; MIC ([14]; 48 h): 0.2 µg/mL; MIC ([16]; 24 H, 37° C.): 5 µg/mL; MIC ([16]; 48 H, 37° C.): 40 µg/mL; MIC ([17]; ATCC6, 48 H, 37° C.): 1 µg/mL; MIC ([17]; ATCC6, 24 h): 0.5 µg/mL; MIC ([19]; UC1, 48 H): 5 µg/mL |
| CC(=O)OCC1=C(C(=O)O)N2C(=O)C(NC(=O)/C(=N\OC(C)(C)C(=O)O)c3csc(N)n3)[C@H]2SC1 (stereo partly drawn) [Example 14, disodium 7-[2-(2-amino-4-thiazolyl)-2-(1-carboxy-1-methylethoxyimino)-acetamido]-3-acetoxymethyl-ceph-3-eme-4-carboxylate] | 20 | 20 | 20 | > 40 | > 40 | > 40 | > 40 | > 40 | 2 | 3 | 0.5 | 0.5 | 40 | > 40 | 0.2 | 1 | 1 | 0.5 | 0.5 | 20 | MIC ([2]; A561, 24 H, 37° C.): 1 µg/mL; MIC ([2]; A561, 48 H, 37° C.): 1 µg/mL; MIC ([5]; ATCC9, 24 h): 0.5 µg/mL; MIC ([5]; ATCC9, 48 h): 0.5 µg/mL; MIC ([8]; 24 H, 37° C.): 1 µg/mL; MIC ([8]; 48 H, 37° C.): 1 µg/mL; MIC ([10]; EXP.52145, 24 H, 37° C.): 1 µg/mL; MIC ([10]; EXP.52145, 48 H, 37° C.): 1 µg/mL; MIC ([12]; ATCC11, 48 H, 37° C.): 0.2 µg/mL; MIC ([13]; 24 H, 37° C.): 0.05 µg/mL; MIC ([13]; 48 H, 37° C.): 0.05 µg/mL; MIC ([14]; 24 H, 37° C.): 1 µg/mL; MIC ([14]; 48 H, 37° C.): 1 µg/mL; MIC ([16]; 24 H, 37° C.): 0.1 µg/mL; MIC ([16]; 48 H, 37° C.): 3 µg/mL; MIC ([17]; ATCC6, 24 H, 37° C.): 10 µg/mL; MIC ([17]; ATCC6, 48 H, 37° C.): > 40 µg/mL; MIC ([19]; UC1, 48 H): 40 µg/mL |
